Experimental data published in ChEMBL document CHEMBL1201862, “PubChem BioAssay data set” (2004).
Structures can show the parent of a compound that is named as a salt. The source made the active and inactive calls.

Columns and labels:
[1] = target: Adenosylmethionine-8-amino-7-oxononanoate aminotransferase (Mycobacterium tuberculosis, UniProt P9WQ81); experiment: Mycobacterium tuberculosis BioA enzyme inhibitor Measured in Biochemical System Using Plate Reader - 2163-02_Inhibitor_Dose_CherryPick_Activity.; type: functional, Mycobacterium tuberculosis UT205
[2] = target: T1, High affinity choline transporter 1 (Homo sapiens, UniProt Q9GZV3); experiment: human choline transporter blockers, potency – cell-based, 5-point CRC, membrane potential dye, dose response (AID 504840); type: functional
T1 sequence (Q9GZV3 whole entry): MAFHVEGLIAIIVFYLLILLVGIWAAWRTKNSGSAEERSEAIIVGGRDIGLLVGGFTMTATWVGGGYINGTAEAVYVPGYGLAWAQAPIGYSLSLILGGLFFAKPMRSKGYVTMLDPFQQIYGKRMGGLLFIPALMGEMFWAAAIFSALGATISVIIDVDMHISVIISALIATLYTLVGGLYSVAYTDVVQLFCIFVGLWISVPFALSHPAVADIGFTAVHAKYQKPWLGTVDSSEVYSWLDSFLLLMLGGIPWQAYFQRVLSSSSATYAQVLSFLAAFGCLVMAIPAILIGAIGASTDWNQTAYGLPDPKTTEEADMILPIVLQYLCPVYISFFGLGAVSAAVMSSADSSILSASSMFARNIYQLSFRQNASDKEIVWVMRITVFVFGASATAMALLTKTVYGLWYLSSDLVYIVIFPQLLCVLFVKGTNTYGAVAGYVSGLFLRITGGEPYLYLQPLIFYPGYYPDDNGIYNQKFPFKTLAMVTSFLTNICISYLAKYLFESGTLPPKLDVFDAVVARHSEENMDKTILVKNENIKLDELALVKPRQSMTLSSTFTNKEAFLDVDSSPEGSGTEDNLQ

[3] = target: T1, High affinity choline transporter 1; experiment: human choline transporter blockers, potency – cell-based, 10-point CRC, membrane potential dye, dose response (AID 588401); type: functional;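 note: membrane potential dye fluorescence of choline-evoked depolarization via CHT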
[4] = target: T2, Sentrin-specific protease 6 (Homo sapiens, UniProt Q9GZR1); type: functional;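 note: Luminescence-based dose-response confirmatory assay of SENP6 inhibition, following up an ultra-high-throughput screen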
T2 sequence (Q9GZR1 whole entry): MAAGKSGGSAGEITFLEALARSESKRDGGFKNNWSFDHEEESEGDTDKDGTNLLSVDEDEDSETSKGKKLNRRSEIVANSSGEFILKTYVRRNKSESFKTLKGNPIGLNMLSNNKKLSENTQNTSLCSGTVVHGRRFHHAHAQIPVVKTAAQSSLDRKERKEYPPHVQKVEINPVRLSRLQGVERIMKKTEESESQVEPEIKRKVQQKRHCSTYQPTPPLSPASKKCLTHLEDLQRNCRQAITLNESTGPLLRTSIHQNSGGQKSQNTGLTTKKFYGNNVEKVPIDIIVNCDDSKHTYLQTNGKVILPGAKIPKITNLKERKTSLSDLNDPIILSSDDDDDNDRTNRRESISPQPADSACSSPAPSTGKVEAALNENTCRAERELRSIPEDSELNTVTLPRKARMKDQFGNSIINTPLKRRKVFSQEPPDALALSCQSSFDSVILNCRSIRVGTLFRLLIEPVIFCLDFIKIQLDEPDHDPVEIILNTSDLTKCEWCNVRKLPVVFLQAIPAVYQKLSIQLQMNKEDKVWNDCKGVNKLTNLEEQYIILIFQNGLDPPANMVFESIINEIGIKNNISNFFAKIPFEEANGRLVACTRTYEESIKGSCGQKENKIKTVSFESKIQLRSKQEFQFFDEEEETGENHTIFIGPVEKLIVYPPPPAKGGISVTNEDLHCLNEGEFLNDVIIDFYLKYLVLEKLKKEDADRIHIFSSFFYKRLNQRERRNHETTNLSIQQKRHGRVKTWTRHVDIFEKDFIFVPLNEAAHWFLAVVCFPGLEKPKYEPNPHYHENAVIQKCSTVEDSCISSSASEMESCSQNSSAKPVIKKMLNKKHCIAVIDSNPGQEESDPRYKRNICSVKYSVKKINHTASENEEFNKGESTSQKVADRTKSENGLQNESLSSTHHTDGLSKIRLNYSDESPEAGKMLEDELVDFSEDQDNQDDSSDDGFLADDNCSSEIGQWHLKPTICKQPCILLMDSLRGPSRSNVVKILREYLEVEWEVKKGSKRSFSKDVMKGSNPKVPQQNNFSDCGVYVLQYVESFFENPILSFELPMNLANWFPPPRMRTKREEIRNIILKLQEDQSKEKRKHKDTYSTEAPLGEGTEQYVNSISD

Caspase-3 = target: T3, Caspase-3 (Homo sapiens, UniProt P42574); type: functional;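 note: Dose-response selectivity test against caspase-3 for candidate inhibitors of sentrin-specific proteases (SENPs)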
T3 sequence (P42574 whole entry): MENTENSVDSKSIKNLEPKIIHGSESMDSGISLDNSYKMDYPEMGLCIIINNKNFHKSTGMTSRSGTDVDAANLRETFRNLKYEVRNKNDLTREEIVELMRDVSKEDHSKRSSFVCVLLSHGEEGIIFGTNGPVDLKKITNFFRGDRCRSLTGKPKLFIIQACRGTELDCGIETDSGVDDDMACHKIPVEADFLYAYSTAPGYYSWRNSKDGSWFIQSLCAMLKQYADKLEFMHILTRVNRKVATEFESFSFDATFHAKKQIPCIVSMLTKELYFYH

[5] = target: T4, Sentrin-specific protease 8 (Homo sapiens, UniProt Q96LD8); type: functional;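 note: luminescence read-out of SENP8 inhibition, dose-response confirmation following an ultra-high-throughput screen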
T4 sequence (Q96LD8 whole entry): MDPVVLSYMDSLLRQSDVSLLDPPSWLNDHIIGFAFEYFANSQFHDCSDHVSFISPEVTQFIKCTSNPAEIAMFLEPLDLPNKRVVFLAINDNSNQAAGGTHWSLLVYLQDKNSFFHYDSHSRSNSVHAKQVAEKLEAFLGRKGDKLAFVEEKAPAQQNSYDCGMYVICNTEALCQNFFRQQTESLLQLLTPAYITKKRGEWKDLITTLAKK

[6] = target: T5, Sentrin-specific protease 7 (Homo sapiens, UniProt Q9BQF6); type: functional;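 note: Luminescence-based dose-response confirmation of ultra-high-throughput screening hits, measuring inhibition of SENP7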
T5 sequence (Q9BQF6 whole entry): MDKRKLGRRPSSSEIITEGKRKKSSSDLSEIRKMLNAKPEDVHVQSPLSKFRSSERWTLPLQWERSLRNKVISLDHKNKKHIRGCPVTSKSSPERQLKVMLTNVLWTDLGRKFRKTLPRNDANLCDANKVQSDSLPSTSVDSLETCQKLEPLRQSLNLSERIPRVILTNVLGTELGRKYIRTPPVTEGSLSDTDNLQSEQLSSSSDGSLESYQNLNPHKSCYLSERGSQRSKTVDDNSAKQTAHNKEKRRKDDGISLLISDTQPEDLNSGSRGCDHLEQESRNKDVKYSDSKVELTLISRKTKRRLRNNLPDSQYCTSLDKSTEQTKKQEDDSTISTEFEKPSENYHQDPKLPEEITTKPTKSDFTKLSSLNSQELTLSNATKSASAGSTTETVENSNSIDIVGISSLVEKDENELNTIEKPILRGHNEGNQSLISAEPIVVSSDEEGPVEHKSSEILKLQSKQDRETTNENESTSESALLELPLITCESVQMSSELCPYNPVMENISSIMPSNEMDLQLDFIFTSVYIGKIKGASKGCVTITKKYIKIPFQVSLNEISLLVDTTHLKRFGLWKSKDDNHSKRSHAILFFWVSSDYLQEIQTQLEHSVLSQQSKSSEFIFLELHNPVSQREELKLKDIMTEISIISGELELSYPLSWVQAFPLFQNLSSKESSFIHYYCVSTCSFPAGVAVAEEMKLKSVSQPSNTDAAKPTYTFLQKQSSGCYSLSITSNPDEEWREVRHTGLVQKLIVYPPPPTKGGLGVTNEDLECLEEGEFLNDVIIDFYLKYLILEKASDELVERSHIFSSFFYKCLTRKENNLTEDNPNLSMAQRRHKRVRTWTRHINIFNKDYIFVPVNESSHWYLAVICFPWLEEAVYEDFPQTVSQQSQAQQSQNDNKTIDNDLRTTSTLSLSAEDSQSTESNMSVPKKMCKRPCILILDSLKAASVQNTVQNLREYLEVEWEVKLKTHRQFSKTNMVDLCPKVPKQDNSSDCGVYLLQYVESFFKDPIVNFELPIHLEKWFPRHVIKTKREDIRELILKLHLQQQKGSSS

P388/ADR = experiment: cells; type: functional; details: Mus musculus
P388 = experiment: cells; type: functional; details: Mus musculus
SN12K1 = experiment: cells; type: functional; details: Homo sapiens
[7] = reduction of Shn3 3'UTR-driven luciferase in osteoblasts – cell-based, Clone20 osteoblasts, firefly luciferase, cherry-picked, dose response (AID 624132); type: functional;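 note: firefly luciferase luminescence from reporter carrying the Shn3 3'UTR in osteoblasts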
[8] = target: Heat shock protein HSP 90-alpha (Homo sapiens, UniProt P07900); type: functional, organism-based
[9] = loss of viability in HepG2 cells – cell-based, CellTiter-Glo, cherry-picked, cytotoxicity control for Shn3 inhibitor project, dose response (AID 624134); type: functional
[10] = non-specific 3'UTR reporter inhibition in Clone20-Shn3RL – cell-based, Renilla luciferase, cherry-picked, counter-screen for Shn3 inhibitor project, dose response (AID 624133); type: functional
Phospholipase A2 = Phospholipase A2 (Homo sapiens, UniProt P04054); type: functional;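 note: confirmatory dose-response counterscreen on phospholipase A2, testing hits that came from an ultra-high-throughput screen for ATG4B inhibitors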
Cysteine protease ATG4B = target: T6, Cysteine protease ATG4B (Homo sapiens, UniProt Q9Y4P1); type: functional;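 note: Fluorescence-based dose-response confirmation assay measuring inhibition of ATG4B activity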
T6 sequence (Q9Y4P1 whole entry): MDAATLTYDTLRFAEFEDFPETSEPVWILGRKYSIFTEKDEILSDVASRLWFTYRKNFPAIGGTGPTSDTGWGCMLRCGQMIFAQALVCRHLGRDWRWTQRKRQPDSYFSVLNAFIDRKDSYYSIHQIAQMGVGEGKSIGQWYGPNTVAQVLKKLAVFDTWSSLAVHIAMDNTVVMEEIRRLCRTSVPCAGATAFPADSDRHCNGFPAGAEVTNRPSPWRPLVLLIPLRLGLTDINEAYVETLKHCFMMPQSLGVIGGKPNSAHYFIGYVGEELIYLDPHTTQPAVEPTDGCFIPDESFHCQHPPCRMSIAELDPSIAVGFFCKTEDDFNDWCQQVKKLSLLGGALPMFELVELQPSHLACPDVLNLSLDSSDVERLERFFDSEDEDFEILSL

[11] = viability loss of HPDE-C7K cells – cell-based, fluorescence, HTS, primary screen (AID 431); type: functional; details: Homo sapiens
[12] = target: T7, Ubiquitin-conjugating enzyme E2 N (Homo sapiens, UniProt P61088); type: functional;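 note: Dose-response confirmation in a TR-FRET assay detecting UBC13-driven polyubiquitin chain formation, inhibition measured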
T7 sequence (P61088 whole entry): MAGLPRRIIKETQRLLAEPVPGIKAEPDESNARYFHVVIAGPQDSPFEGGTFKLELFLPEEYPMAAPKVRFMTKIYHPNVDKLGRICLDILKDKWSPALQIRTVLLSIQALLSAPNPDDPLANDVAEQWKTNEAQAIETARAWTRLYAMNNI

[13] = Luminescence Cell-Based Dose Retest to Confirm Inhibitors of Cancer Stem Cells. [Related pubchem assays (depositor defined):AID2717, AID2721]; type: functional; details: Homo sapiens
[14] = target: Eukaryotic translation initiation factor 4E (Mus musculus, UniProt P63073); experiment: blockers of eIF4G binding by eIF4E – biochemical, TR-FRET, dose response (AID 855); type: functional;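 note: potency for disrupting eIF4E binding to eIF4GI seen as loss of FRET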
Cytochrome P450 2C9 = Cytochrome P450 2C9 (Homo sapiens, UniProt P11712)
Sequence of Cytochrome P450 2C9 (P11712 whole entry): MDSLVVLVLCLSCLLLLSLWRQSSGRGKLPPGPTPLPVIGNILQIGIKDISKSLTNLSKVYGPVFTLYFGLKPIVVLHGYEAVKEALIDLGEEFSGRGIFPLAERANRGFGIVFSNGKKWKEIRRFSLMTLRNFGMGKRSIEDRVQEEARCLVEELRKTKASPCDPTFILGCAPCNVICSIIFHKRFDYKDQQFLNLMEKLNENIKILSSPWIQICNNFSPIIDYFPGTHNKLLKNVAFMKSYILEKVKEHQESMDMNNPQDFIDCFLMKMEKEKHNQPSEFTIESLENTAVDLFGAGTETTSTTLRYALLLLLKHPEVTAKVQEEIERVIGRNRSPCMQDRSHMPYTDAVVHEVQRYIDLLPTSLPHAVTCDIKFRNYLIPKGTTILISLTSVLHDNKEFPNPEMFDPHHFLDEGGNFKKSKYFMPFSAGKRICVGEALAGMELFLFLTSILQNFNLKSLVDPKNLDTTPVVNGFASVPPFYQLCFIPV

Sequence of Phospholipase A2 (P04054 whole entry): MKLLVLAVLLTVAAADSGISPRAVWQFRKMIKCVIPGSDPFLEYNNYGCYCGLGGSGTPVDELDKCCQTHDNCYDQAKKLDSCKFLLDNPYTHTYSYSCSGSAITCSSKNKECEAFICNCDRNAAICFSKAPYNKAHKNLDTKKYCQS
Sequence of Adenosylmethionine-8-amino-7-oxononanoate aminotransferase (P9WQ81 whole entry): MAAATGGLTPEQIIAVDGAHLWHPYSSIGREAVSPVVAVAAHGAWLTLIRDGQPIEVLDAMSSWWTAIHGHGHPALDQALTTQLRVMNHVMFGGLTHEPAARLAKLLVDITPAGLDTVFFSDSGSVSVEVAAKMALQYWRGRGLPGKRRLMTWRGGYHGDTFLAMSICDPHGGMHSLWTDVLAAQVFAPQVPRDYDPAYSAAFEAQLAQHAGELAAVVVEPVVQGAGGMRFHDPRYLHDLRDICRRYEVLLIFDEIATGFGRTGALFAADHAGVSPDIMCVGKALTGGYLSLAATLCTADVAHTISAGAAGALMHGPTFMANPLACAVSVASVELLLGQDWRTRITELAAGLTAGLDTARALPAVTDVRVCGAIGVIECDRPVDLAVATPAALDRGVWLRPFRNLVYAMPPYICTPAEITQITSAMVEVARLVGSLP
Sequence of Eukaryotic translation initiation factor 4E (P63073 whole entry): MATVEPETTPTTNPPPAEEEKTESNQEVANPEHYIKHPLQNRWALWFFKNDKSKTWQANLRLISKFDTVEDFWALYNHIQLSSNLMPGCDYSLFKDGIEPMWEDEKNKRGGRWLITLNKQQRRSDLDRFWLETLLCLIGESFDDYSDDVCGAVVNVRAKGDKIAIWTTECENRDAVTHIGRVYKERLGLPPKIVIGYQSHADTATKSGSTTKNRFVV

## CCC(Sc1nc2ccsc2c(=O)n1Cc1ccc(C(=O)O)cc1)C(=O)Nc1cccc(OC)c1 (stereo unspecified)
[1]
  AC50: 4.08 µM (active)

## O=[N+]([O-])c1ccc(Sc2ncc3ccccn23)nc1
[2]
  IC50: 3.9 µM (active)
[3]
  IC50: 1.13 µM (active)

## O=C(COC(=O)c1ccc([N+](=O)[O-])s1)NCc1ccccc1
[4]
  IC50: 12.8 µM (active)
Caspase-3
  IC50: 23.4 µM (active)
[5]
  IC50: 12.9 µM (active)
[6]
  IC50: 19.1 µM (active)

## CCCCCCCCOC(=O)c1cc([N+](=O)[O-])c(Sc2[nH]cnc3ncnc2-3)c([N+](=O)[O-])c1
P388/ADR
  GI50: 0.152 µM (active)
P388
  GI50: 0.184 µM (active)
SN12K1
  GI50: 0.912 µM (active)
[7]
  AC50: 2.81 µM (active)
[8]
  AC50: 2.18 µM (active)
[9]
  AC50: 11.5 µM (active)
[10]
  AC50: 10.6 µM (active)

## NC(=O)/C(=C\c1ccccc1)NC(=O)/C=C/c1ccccc1
Phospholipase A2
  IC50: 15.5 µM (active)
Cysteine protease ATG4B
  IC50: 19.1 µM (active)

## CCCCc1oc2ccccc2c1C(=O)c1cc(I)c(OCCN(CC)CC)c(I)c1 [AMIODARONE HYDROCHLORIDE]
[11]
  EC50: 7.82 µM (active)
P388
  GI50: 5.06 µM (inactive)
SN12K1
  GI50: 3.77 µM (inactive)
[12]
  IC50: > 20 µM (inactive)
[13]
  AC50: 4.87 µM (active)

## O=C(Nc1ccccc1N1CCN(c2ccccc2)CC1)c1ccccc1
Phospholipase A2
  IC50: 6.48 µM (active)
Cysteine protease ATG4B
  IC50: 9.27 µM (active)

## CCCCCCCC(=O)O[C@H]1[C@H]2[C@@H](CC1(C)C)C(=O)[C@]13O[C@H]1C(=O)[C@]1(CO1)[C@]23C
P388/ADR
  GI50: 0.1 µM (active)
P388
  GI50: 0.0904 µM (active)
SN12K1
  GI50: 3.33 µM (inactive)

## C[C@@H](C(=O)N1CCN(Cc2ccc3c(c2)OCO3)CC1)n1nnc2ccccc2c1=O
[1]
  AC50: 4.11 µM (active)

## O=c1[nH]ncc(N2CCCC2)c1Cl
[2]
  IC50: 8.71 µM (active)
[14]
  IC50: 50 µM (inactive)
[3]
  IC50: 7.51 µM (active)

## CCn1cnc2sc(-c3ccccc3)cc2c1=O
[4]
  IC50: 32.2 µM (active)
Caspase-3
  IC50: 12.5 µM (active)
[5]
  IC50: 43.8 µM (active)
[6]
  IC50: 9.66 µM (active)

## Cc1noc(C)c1COc1ccc(C(=O)OCC(=O)NCc2ccccc2Cl)cc1
Phospholipase A2
  IC50: 6.59 µM (active)
Cysteine protease ATG4B
  IC50: 22.5 µM (inactive)

## NC(=O)c1ccc(-c2ncc(-c3ccccc3)o2)cc1
[4]
  IC50: 33.9 µM (active)
Caspase-3
  IC50: 13.1 µM (active)
Cytochrome P450 2C9
  AC50: 2.51 µM (inconclusive)
[5]
  IC50: 51.7 µM (active)
[6]
  IC50: 6.11 µM (active)
